Assay results taken from ChEMBL document CHEMBL2202954, “The effect of PLC-γ2 inhibitors on the growth of human tumour cells” (2012).

What was measured:
Type in all cases: functional
T47D = assay: Cytotoxicity against human T47D cells assessed as cellular growth at 10 uM by SRB assay
SW-620 = assay: Cytotoxicity against human SW620 cells assessed as cellular growth at 10 uM by SRB assay
BT-549 = assay: Cytotoxicity against human BT549 cells assessed as cellular growth at 10 uM by SRB assay
UACC-257 = assay: Cytotoxicity against human UACC257 cells assessed as cellular growth at 10 uM by SRB assay
HCC 2998 = assay: Cytotoxicity against human HCC2998 cells assessed as cellular growth at 10 uM by SRB assay
[1] = Cytotoxicity against human NCI-ADR-RES cells assessed as cellular growth at 10 uM by SRB assay
UACC-62 = assay: Cytotoxicity against human UACC62 cells assessed as cellular growth at 10 uM by SRB assay
NCI-H460 = assay: Cytotoxicity against human NCI-H460 cells assessed as cellular growth at 10 uM by SRB assay
K562 = assay: Cytotoxicity against human K562 cells assessed as cellular growth at 10 uM by SRB assay
EKVX = assay: Cytotoxicity against human EKVX cells assessed as cellular growth at 10 uM by SRB assay
OVCAR-8 = assay: Cytotoxicity against human OVCAR8 cells assessed as cellular growth at 10 uM by SRB assay
MDA-MB-435 = assay: Cytotoxicity against human MDA-MB-435 cells assessed as cellular growth at 10 uM by SRB assay
LOX IMVI = assay: Cytotoxicity against human LOXIMVI cells assessed as cellular growth at 10 uM by SRB assay
SF-539 = assay: Cytotoxicity against human SF539 cells assessed as cellular growth at 10 uM by SRB assay
RXF 393 = assay: Cytotoxicity against human RXF393 cells assessed as cellular growth at 10 uM by SRB assay
HOP-92 = assay: Cytotoxicity against human HOP92 cells assessed as cellular growth at 10 uM by SRB assay
U-251 = assay: Cytotoxicity against human U251 cells assessed as cellular growth at 10 uM by SRB assay
A498 = assay: Cytotoxicity against human A498 cells assessed as cellular growth at 10 uM by SRB assay
UO-31 = assay: Cytotoxicity against human UO31 cells assessed as cellular growth at 10 uM by SRB assay
MDA-MB-468 = assay: Cytotoxicity against human MDA-MB-468 cells assessed as cellular growth at 10 uM by SRB assay
CCRF-CEM = assay: Cytotoxicity against human CCRF-CEM cells assessed as cellular growth at 10 uM by SRB assay
CAKI-1 = assay: Cytotoxicity against human Caki1 cells assessed as cellular growth at 10 uM by SRB assay
NCI-H226 = assay: Cytotoxicity against human NCI-H226 cells assessed as cellular growth at 10 uM by SRB assay
SK-MEL-5 = assay: Cytotoxicity against human SK-MEL-5 cells assessed as cellular growth at 10 uM by SRB assay
SK-OV-3 = assay: Cytotoxicity against human SKOV3 cells assessed as cellular growth at 10 uM by SRB assay
OVCAR-5 = assay: Cytotoxicity against human OVCAR5 cells assessed as cellular growth at 10 uM by SRB assay
MDA-MB-231 = assay: Cytotoxicity against human MDA-MB-231 cells assessed as cellular growth at 10 uM by SRB assay
786-0 = assay: Cytotoxicity against human 786-0 cells assessed as cellular growth at 10 uM by SRB assay
OVCAR-3 = assay: Cytotoxicity against human OVCAR3 cells assessed as cellular growth at 10 uM by SRB assay
SK-MEL-28 = assay: Cytotoxicity against human SK-MEL-28 cells assessed as cellular growth at 10 uM by SRB assay
NCI-H322M = assay: Cytotoxicity against human NCI-H322M cells assessed as cellular growth at 10 uM by SRB assay
SF-268 = assay: Cytotoxicity against human SF268 cells assessed as cellular growth at 10 uM by SRB assay
MOLT-4 = assay: Cytotoxicity against human MOLT4 cells assessed as cellular growth at 10 uM by SRB assay
NCI-H23 = assay: Cytotoxicity against human NCI-H23 cells assessed as cellular growth at 10 uM by SRB assay
HOP-62 = assay: Cytotoxicity against human HOP62 cells assessed as cellular growth at 10 uM by SRB assay
NCI-H522 = assay: Cytotoxicity against human NCI-H522 cells assessed as cellular growth at 10 uM by SRB assay
M14 = assay: Cytotoxicity against human M14 cells assessed as cellular growth at 10 uM by SRB assay
SF-295 = assay: Cytotoxicity against human SF295 cells assessed as cellular growth at 10 uM by SRB assay
IGROV-1 = assay: Cytotoxicity against human IGROV1 cells assessed as cellular growth at 10 uM by SRB assay
A549 = assay: Cytotoxicity against human A549 cells assessed as cellular growth at 10 uM by SRB assay
KM12 = assay: Cytotoxicity against human KM12 cells assessed as cellular growth at 10 uM by SRB assay
SNB-19 = assay: Cytotoxicity against human SNB19 cells assessed as cellular growth at 10 uM by SRB assay
HT-29 = assay: Cytotoxicity against human HT-29 cells assessed as cellular growth at 10 uM by SRB assay
SK-MEL-2 = assay: Cytotoxicity against human SK-MEL-2 cells assessed as cellular growth at 10 uM by SRB assay
PC-3 = assay: Cytotoxicity against human PC3 cells assessed as cellular growth at 10 uM by SRB assay
MCF7 = assay: Cytotoxicity against human MCF7 cells assessed as cellular growth at 10 uM by SRB assay
RPMI-8226 = assay: Cytotoxicity against human RPMI8226 cells assessed as cellular growth at 10 uM by SRB assay
HL-60(TB) = assay: Cytotoxicity against human HL-60(TB) cells assessed as cellular growth at 10 uM by SRB assay
COLO 205 = assay: Cytotoxicity against human COLO205 cells assessed as cellular growth at 10 uM by SRB assay
TK-10 = assay: Cytotoxicity against human TK10 cells assessed as cellular growth at 10 uM by SRB assay
HCT-15 = assay: Cytotoxicity against human HCT15 cells assessed as cellular growth at 10 uM by SRB assay
SNB-75 = assay: Cytotoxicity against human SNB75 cells assessed as cellular growth at 10 uM by SRB assay
ACHN = assay: Cytotoxicity against human ACHN cells assessed as cellular growth at 10 uM by SRB assay
HCT-116 = assay: Cytotoxicity against human HCT116 cells assessed as cellular growth at 10 uM by SRB assay
Hs-578T = assay: Cytotoxicity against human Hs578T cells assessed as cellular growth at 10 uM by SRB assay
OVCAR-4 = assay: Cytotoxicity against human OVCAR4 cells assessed as cellular growth at 10 uM by SRB assay
SN12C = assay: Cytotoxicity against human SN12C cells assessed as cellular growth at 10 uM by SRB assay
Malme-3M = assay: Cytotoxicity against human MALME-3M cells assessed as cellular growth at 10 uM by SRB assay
DU-145 = assay: Cytotoxicity against human DU145 cells assessed as cellular growth at 10 uM by SRB assay

Work on N#Cc1ccc(NC(=O)c2sc3nc4c(cc3c2N)C(=O)CCC4)cc1 yielded an Activity (T47D) of 95.85%, an Activity (SW-620) of 98.14% and an Activity (BT-549) of 108.43%. For the same compound, the Activity (UACC-257) was 105.99%, the Activity (HCC 2998) was 99.15% and the Activity [1] was 105.72%. The Activity (UACC-62) was 99.27%, the Activity (NCI-H460) was 85.91% and the Activity (K562) was 108.42%. For the same compound, the Activity (EKVX) was 93.58%, the Activity (OVCAR-8) was 104.55% and the Activity (MDA-MB-435) was 97.44%. It also gave an Activity (LOX IMVI) of 111.96%, an Activity (SF-539) of 99.77% and an Activity (RXF 393) of 119.14%. The Activity (HOP-92) was 95.57%, the Activity (U-251) was 106.08% and the Activity (A498) was 79.55%. The Activity (UO-31) was 103.56%, the Activity (MDA-MB-468) was 97.58% and the Activity (CCRF-CEM) was 99.79%. The Activity (CAKI-1) was 93.27%, the Activity (NCI-H226) was 93.7% and the Activity (SK-MEL-5) was 92.55%. For the same compound, the Activity (SK-OV-3) was 106.21%, the Activity (OVCAR-5) was 89.16% and the Activity (MDA-MB-231) was 109.01%. It also gave an Activity (786-0) of 97.81%, an Activity (OVCAR-3) of 113.89% and an Activity (SK-MEL-28) of 105.89%. It also gave an Activity (NCI-H322M) of 102.55%, an Activity (SF-268) of 102.29% and an Activity (MOLT-4) of 114.77%. The Activity (NCI-H23) was 106.13%, the Activity (HOP-62) was 100.94% and the Activity (NCI-H522) was 102.85%. It also gave an Activity (M14) of 105.98%, an Activity (SF-295) of 82.4% and an Activity (IGROV-1) of 113.1%. For the same compound, the Activity (A549) was 92.54%, the Activity (KM12) was 101.12% and the Activity (SNB-19) was 101.84%. For the same compound, the Activity (HT-29) was 84.91%, the Activity (SK-MEL-2) was 83% and the Activity (PC-3) was 106.64%. The Activity (MCF7) was 97.4%, the Activity (RPMI-8226) was 95.69% and the Activity (HL-60(TB)) was 81.02%. It also gave an Activity (COLO 205) of 108.98%, an Activity (TK-10) of 65.94% and an Activity (HCT-15) of 100.78%. For the same compound, the Activity (SNB-75) was 113.44%, the Activity (ACHN) was 107.57% and the Activity (HCT-116) was 107.92%. It also gave an Activity (Hs-578T) of 110.8%, an Activity (OVCAR-4) of 105.84% and an Activity (SN12C) of 98.35%. It also gave an Activity (Malme-3M) of 89.34% and an Activity (DU-145) of 94.94%.
Compound O=C(NCCc1ccc(Cl)cc1)c1[nH]c2ccccc2c1Cl has an Activity (T47D) of 81.02%, an Activity (SW-620) of 92.87% and an Activity (BT-549) of 111.29%. It also gave an Activity (UACC-257) of 100.48%, an Activity (HCC 2998) of 102.32% and an Activity [1] of 100.24%. The Activity (UACC-62) was 81.86%, the Activity (NCI-H460) was 93.16% and the Activity (K562) was 67.44%. It also gave an Activity (EKVX) of 91.27%, an Activity (OVCAR-8) of 96.34% and an Activity (MDA-MB-435) of 98.17%. For the same compound, the Activity (LOX IMVI) was 96.1%, the Activity (SF-539) was 101.07% and the Activity (RXF 393) was 113.7%. The Activity (HOP-92) was 81.73%, the Activity (U-251) was 100.14% and the Activity (A498) was 77.04%. The Activity (UO-31) was 73.65%, the Activity (MDA-MB-468) was 108.58% and the Activity (CCRF-CEM) was 108.31%. It also gave an Activity (CAKI-1) of 96.12%, an Activity (NCI-H226) of 89.37% and an Activity (SK-MEL-5) of 95.47%. For the same compound, the Activity (SK-OV-3) was 86.84%, the Activity (OVCAR-5) was 117.9% and the Activity (MDA-MB-231) was 95.77%. For the same compound, the Activity (786-0) was 106.07%, the Activity (OVCAR-3) was 100.99% and the Activity (SK-MEL-28) was 109.77%. For the same compound, the Activity (NCI-H322M) was 106.64%, the Activity (SF-268) was 97.34% and the Activity (MOLT-4) was 77.08%. For the same compound, the Activity (NCI-H23) was 92.75%, the Activity (HOP-62) was 85.04% and the Activity (NCI-H522) was 101.96%. For the same compound, the Activity (M14) was 98.43%, the Activity (SF-295) was 98.05% and the Activity (IGROV-1) was 93.76%. It also gave an Activity (A549) of 92.96%, an Activity (KM12) of 94.49% and an Activity (SNB-19) of 98.39%. The Activity (HT-29) was 100.35%, the Activity (SK-MEL-2) was 130.7% and the Activity (PC-3) was 88.9%. For the same compound, the Activity (MCF7) was 78.35%, the Activity (RPMI-8226) was 96.69% and the Activity (HL-60(TB)) was 94.84%. The Activity (COLO 205) was 97.59%, the Activity (TK-10) was 160.82% and the Activity (HCT-15) was 101.72%. The Activity (SNB-75) was 89.76%, the Activity (ACHN) was 99.57% and the Activity (HCT-116) was 98.39%. It also gave an Activity (Hs-578T) of 94.53%, an Activity (OVCAR-4) of 89.13% and an Activity (SN12C) of 97.33%. It also gave an Activity (Malme-3M) of 107.52% and an Activity (DU-145) of 101.11%.
